Experimental data taken from PubChem BioAssay (NCI).
Several values for one entry are separate records, joined by “and”; a condition that tells them apart may be missing. Equal entries are not always repeated.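 Tested at 5 concentrations; 48 h exposure; 96-well plates; endpoints linearly interpolated, else capped at highest concentration. At the GI50, growth is halved. TGI marks complete inhibition of growth.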

Experiments:
Experiment in all cases: inhibition of tumour cell growth, NCI panel, 48 h
SN12C renal = system: SN12C renal
U251 CNS = system: U251 CNS
NCI-H460 lung = system: NCI-H460 lung
SK-MEL-5 melanoma = system: SK-MEL-5 melanoma
MOLT-4 leukemia = system: MOLT-4 leukemia
HOP-92 NSCLC = system: HOP-92 NSCLC
SK-OV-3 ovarian = system: SK-OV-3 ovarian
MDA-N = system: MDA-N
IGROV1 ovarian = system: IGROV1 ovarian
OVCAR-3 ovarian = system: OVCAR-3 ovarian
SF-268 CNS = system: SF-268 CNS
EKVX NSCLC = system: EKVX NSCLC
PC-3 prostate = system: PC-3 prostate

Row | Structure (SMILES) | TGI (SN12C renal) [µM] | TGI (U251 CNS) | TGI (NCI-H460 lung) | TGI (SK-MEL-5 melanoma) | TGI (MOLT-4 leukemia) | TGI (HOP-92 NSCLC) | TGI (SK-OV-3 ovarian) | TGI (MDA-N) [µM] | TGI (IGROV1 ovarian) | TGI (OVCAR-3 ovarian) | TGI (SF-268 CNS) | TGI (EKVX NSCLC) | TGI (PC-3 prostate) | GI50 (SK-MEL-5 melanoma) [µM] | GI50 (HOP-92 NSCLC) | GI50 (SK-OV-3 ovarian) [µM] | GI50 (IGROV1 ovarian) [µM] | GI50 (OVCAR-3 ovarian) [µM] | GI50 (SF-268 CNS) [µM] | GI50 (EKVX NSCLC)
1 | NC1=CC(C(=O)c2ccncc2)c2nc3ccccc3nc21 (stereo unspecified) | > 100 | > 100 µM | > 100 µM | > 100 µM | > 100 µM | > 100 µM | > 100 µM | > 100 | > 100 µM | > 100 µM | > 100 µM | > 100 µM | > 100 µM | – | – | – | – | – | – | –
2 | NC(C(F)(F)F)(C(F)(F)F)P(=O)(c1ccccc1)c1ccccc1 | > 100 | > 100 µM | > 100 µM | > 100 µM | > 100 µM | > 100 µM | > 100 µM | > 100 | > 100 µM | > 100 µM | > 100 µM | > 100 µM | > 100 µM | – | – | – | – | – | – | –
3 | N#CC1=C(C#N)/C(=C(\C#N)C(C#N)C#N)N=C1N | > 100 | > 100 µM | > 100 µM | 31.8 µM | 64.4 µM | > 75 µM | > 100 µM | 30.3 | > 100 µM | > 100 µM | > 100 µM | > 100 µM | > 100 µM | – | – | – | – | – | – | –
4 | Cc1ccc(S(=O)(=O)NC(=O)NCC(=O)NCC(=O)O)cc1 | – | > 100 µM | > 100 µM | > 100 µM | > 100 µM | > 100 µM | > 100 µM | > 100 | > 100 µM | > 100 µM | > 100 µM | > 100 µM | > 100 µM | – | – | – | – | – | – | –
5 | CC1(C)OC(=O)C(C)(C)OC1=O | > 100 | > 100 µM | > 100 µM | > 100 µM | > 100 µM | > 100 µM | > 100 µM | > 100 | > 100 µM | > 100 µM | > 100 µM | > 100 µM | > 100 µM | – | – | – | – | – | – | –
6 | COc1ccc2c(c1)N(C(C)=O)CN1C(=O)CCC21 (stereo unspecified) | > 100 | > 100 µM | > 100 µM | > 100 µM | > 100 µM | > 100 µM | > 100 µM | > 100 | > 100 µM | > 100 µM | > 100 µM | > 100 µM | > 100 µM | – | – | – | – | – | – | –
7 | COc1cc2c(cc1OC)C1C(O)C(OC)C=C3CC[N+](C)(C2)C31 (stereo unspecified) | > 100 | > 100 µM | > 100 µM | > 100 µM | > 100 µM | > 100 µM | > 100 µM | > 100 | > 100 µM | > 100 µM | > 100 µM | > 100 µM | > 100 µM | – | – | – | – | – | – | –
8 | CN(C)c1ncnc2c1ncn2C1C=CC(COS(N)(=O)=O)C1 (stereo unspecified) | > 100 | > 100 µM | > 100 µM | > 100 µM | > 100 µM | > 100 µM | > 100 µM | > 100 | > 100 µM | > 100 µM | > 100 µM | > 100 µM | > 100 µM | – | – | – | – | – | – | –
9 | CC1=NN2C(=O)CC(=O)N=C2S1 | > 100 | > 100 µM | > 100 µM | > 100 µM | > 100 µM | > 100 µM | > 100 µM | > 100 | > 100 µM | > 100 µM | > 100 µM | > 100 µM | > 100 µM | – | – | – | – | – | – | –
10 | c1ccc([C@@H]2N[C@@]3(CO[Si](c4ccccc4)(c4ccccc4)c4ccccc4)CC[C@H]4CN[C@@H]2[C@H]43)cc1 | 27.1 | 30.9 µM | 25 µM | 19.2 µM | > 100 µM | 15.9 µM | 30.3 µM | 13.1 | 26.7 µM | 27 µM | 22.6 µM | 29.5 µM | 21.3 µM | – | – | – | – | – | – | –
11 | CC1=CCC[C@@](C)(O)[C@@H]2C[C@H]3C(CSc4ccccc4)C(=O)O[C@H]3[C@@H](O2)[C@H](C)CCC1 (stereo partly specified) | > 100 | 66.8 µM | 20.4 µM | 38.3 µM | > 100 µM | > 100 µM | 37.9 µM | 86.2 | 85.1 µM | 26.5 µM | > 100 µM | 63.2 µM | 22.2 µM | – | – | – | – | – | – | –
12 | O=C1/C(=C/c2ccc(Cl)cc2)NC(=S)N1CN1CCOCC1 | > 100 | > 100 µM | – | > 100 µM | > 100 µM | > 100 µM | > 100 µM | > 100 | > 100 µM | > 100 µM | > 100 µM | > 100 µM | > 100 µM | – | – | – | – | – | – | –
13 | O=C1Nc2ccccc2[C@]12C[C@H]2c1ccccn1 | > 100 | > 100 µM | > 100 µM | > 100 µM | > 100 µM | > 100 µM | > 100 µM | > 100 | > 100 µM | > 100 µM | > 100 µM | > 100 µM | > 100 µM | – | – | – | – | – | – | –
14 | CC(=O)O[C@H]1C(=O)[C@@]2(C)[C@H]([C@H](OC(=O)c3ccc([N+](=O)[O-])cc3)[C@]3(O)C[C@H](OC(=O)[C@H](O)[C@@H](NC(=O)c4ccccc4)c4ccccc4)C(C)=C1C3(C)C)[C@]1(OC(C)=O)CO[C@@H]1C[C@@H]2O | > 25 | > 25 µM | > 25 µM | > 25 µM | > 25 µM | > 25 µM | > 25 µM | > 25 | > 25 µM | – | > 25 µM | > 25 µM | > 25 µM | – | – | – | – | – | – | –
15 | CN(C)CCOC1(Cc2ccc(Cl)cc2Cl)CCC(C(C)(C)C)CC1 (stereo unspecified) | 3.32 | 2.9 µM and 3.45 µM | 3.18 µM and 2.66 µM | 3.07 µM and 3.61 µM | 4.72 µM and 4.23 µM | 3.54 µM and 5.92 µM | 4.22 µM and 11 µM | 3.31 | 6.33 µM and 3.25 µM | 3.07 µM and 3.92 µM | 7.89 µM and 6.85 µM | 8.25 µM and 9.01 µM | 3.68 µM and 4.1 µM | 2.05 | 1.8 µM and 2.12 µM | 4.79 | 2.38 | 2.03 | 2.28 | 3.04 µM and 4.01 µM
16 | CC1(C)CCCCCCCCCC(C)(CCCO)C1=O (stereo unspecified) | 32.2 | 30.4 µM | 33.6 µM | 31.3 µM | 41.9 µM | 27.7 µM | 31.4 µM | 30 | 31.4 µM | 34.1 µM | 33.4 µM | 36.7 µM | 27 µM | – | – | – | – | – | – | –
17 | Cn1cnc2c(OCC3CCCCC3)nc(N)nc21 | > 100 | > 100 µM | > 100 µM | > 100 µM | > 100 µM | > 100 µM | > 100 µM | > 100 | > 100 µM | > 100 µM | > 100 µM | > 100 µM | > 100 µM | – | – | – | – | – | – | –
18 | COc1cc(/C=C2/SC(c3ccccc3)N(c3ccc(Cl)cc3)C2=O)cc(OC)c1OC (stereo unspecified) | > 100 | > 100 µM | > 100 µM | – | > 100 µM | > 100 µM | > 100 µM | 31.8 | > 100 µM | > 100 µM | > 100 µM | > 100 µM | > 100 µM | – | – | – | – | – | – | –
19 | CC(=O)n1nc(-c2nc3ccccc3nc2Cl)cc1Cl | > 65.9 | > 77.6 µM | > 88.2 µM | 16.1 µM | 14.3 µM | > 100 µM | > 77.7 µM | 24.2 | > 100 µM | 68.2 µM | > 100 µM | 37.7 µM | > 100 µM | – | – | – | – | – | – | –
20 | Cc1cnc2[nH]c(-c3ccc(F)cc3)cc(=O)c2c1 | > 100 | > 91.8 µM | > 100 µM | > 100 µM | > 91.5 µM | > 100 µM | > 68 µM | 8.87 | > 100 µM | > 78.3 µM | > 100 µM | > 100 µM | > 100 µM | – | – | – | – | – | – | –
21 | COC(=O)/C(C#N)=C1\NC(=O)CC(c2ccccc2)C1C#N (stereo unspecified) | > 100 | – | > 100 µM | > 100 µM | > 100 µM | > 100 µM | > 100 µM | > 100 | > 100 µM | > 100 µM | > 100 µM | > 100 µM | > 100 µM | – | – | – | – | – | – | –
22 | C[C@]12CC(c3ccccc3O1)C(C#N)C(=O)N2 (stereo partly specified) | > 100 | > 100 µM | > 100 µM | > 100 µM | > 100 µM | > 100 µM | > 100 µM | > 100 | > 100 µM | > 100 µM | > 100 µM | > 100 µM | > 100 µM | – | – | – | – | – | – | –
23 | CCCCCC(=O)OCC(=O)[C@H]1[C@H](C)C[C@H]2[C@@H]3C[C@H](F)C4=C/C(=N/OC(=O)c5cccc6c(=O)c7ccccc7[nH]c56)C=C[C@]4(C)[C@H]3[C@@H](O)C[C@@]21C | > 100 | > 100 µM | – | 27.8 µM | > 100 µM | > 100 µM | > 100 µM | 76.8 | > 100 µM | 65.5 µM | > 100 µM | > 100 µM | 53.8 µM | – | – | – | – | – | – | –
24 | CS(=O)(=O)c1[nH]nc2[nH]c(=O)[nH]c(=O)c12 | > 10 | > 10 µM | > 10 µM | > 10 µM | > 10 µM | > 10 µM | > 10 µM | > 10 | > 10 µM | > 10 µM | > 10 µM | > 10 µM | > 10 µM | – | – | – | – | – | – | –
25 | C/C(=N\NC(=O)/C(C#N)=C\c1ccc(N(CCC#N)CCC#N)cc1)c1ccccc1 | > 10 | – | > 10 µM | > 10 µM | > 10 µM | > 10 µM | > 10 µM | > 10 | > 10 µM | – | > 10 µM | > 10 µM | > 10 µM | – | – | – | – | – | – | –
26 | CC1(C)C=C(/C=N/Nc2ccc(Br)cc2)C(C#N)=C(O)C1(C#N)C#N | > 100 | – | > 100 µM | > 100 µM | 89.8 µM | 65.7 µM | > 100 µM | > 100 | > 100 µM | > 100 µM | > 100 µM | > 100 µM | 63.9 µM | – | – | – | – | – | – | –
